Measured values published in patent US9422238B2, “ICMT inhibitors” (National University of Singapore, priority 2012, dated 2016).
“Also recorded” adds a separate entry of the source. Read-outs that look alike come from different tables or passages of the source.

Columns and labels:
Balb/c mice = tested on: Balb/c mice
Method: Animals were given free access to water and standard feed. […] The test compound was administered intraperitoneally using a 23G gauge needle to the animal in a volume of vehicle that was tagged to the body weight, namely 0.2 mL for 20 g animal and so on. The vehicle was formulated from ethanol, PEG 400 (Sigma Aldrich) and 5% dextrose (Sigma Aldrich) in the ratio 1:6:3. The test compound was first dissolved in ethanol, PEG400 was added and the solution was vortexed, followed by 5% dextrose and further vortexing. The solutions were freshly prepared before administration.

[1] = Pharmacokinetic study, IP; type: in vivo, mice; conditions: for detection in plasma at late time points: IP; for half-life / AUC / Tmax / Cmax: female, mouse, plasma; for half-life: Balb/c
HepG2 xenografts = experiment: In vivo activity on xenograft bearing mice; conditions: for deaths during the treatment period: 8 mice
Method: HepG2 cells were grown in DMEM and 10% FBS until near confluence and then harvested after trypsinization. […] The vehicle was ethanol-PEG400-dextrose solution as described in 5.2.1. The animals were monitored daily for changes in their general appearance, weight and tumor volume. Tumor volume was calculated using the formula: […]. Length (L) and width (W) of the tumor were measured with a digital vernier caliper and reported to 2 decimal places. The shorter of the 2 distances was taken as width. The mice were monitored—for 25-days after which they were euthanized with CO2, the tumors removed by dissection and weighed.

Icmt = Icmt (Homo sapiens, UniProt O60725); conditions: background, cited from earlier work
PC3 cells = experiment: Immunofluorescence analysis of LC3 aggregation; type: cell-based, human; conditions: PC3, 48 h
Method: Cover slips were placed into the base of each well in a 24-well plate. PC3 cells were seeded at 10 000 cells/mL per well in media (DMEM Hi-glucose, 10% FBS, 50 μg/mL penicillin, 50 μg/mL streptomycin) and incubated for 24 h. After this time, cells were attached as a layer onto the exposed face of the cover slip. The media was carefully removed from the well without disrupting the cell layer on the cover slip. Test compound in DMEM (high glucose, 5% FBS) was added and incubated for 24 h or 48 h. DMSO concentration was kept at 0.05% per well, including control wells. At the end of the incubation period, media was removed, wells were washed thrice with PBS, followed by addition of chilled PBST (200 μL) per well for 10 minutes to permeabilize the cells. Cells were then fixed with 4% paraformaldehyde (300 μL), incubated for 15 minutes, and washed with cold PBS (3 times) to remove the fixing solution. To the cell layer fixed on the cover slip in the well was added 100 μL of anti-LC3 in PBST (1:1000). The plates were kept at 4° C. overnight after which each well was washed 3× with cold PBS. Rhodamine Red-X® secondary antibody (Jackson Immunoresearch Laboratories, West Grove, Pa.) was added, incubated (2 h, 25° C.) and removed by washing with PBS (3 times). The cover slips were carefully removed from the wells and mounted onto glass slides and sealed with nail polish. […]

[2] = tested on: HepG2, MIA PACA II, MDA-MB-231 and PC3 cells; experiment: Cell viability on panel of 4 malignant cell lines; type: cell-based; conditions: Homo sapiens, MDA-MB-231, PC3, read-out: IC50 values, range over the malignant cell lines
Method: Determinations were made in duplicates or triplicates.
Cell viability was determined from the expression:
Human hepatocellular carcinoma HepG2 and human pancreatic cancer MIA PACA II cells were obtained from ATCC (Rockville, Md.). They were grown in DMEM (high glucose, Invitrogen) supplemented with 10% FBS, 50 μg/mL penicillin and 50 μg/mL streptomycin, 37° C., 5% CO2 until they reached 80-90% confluency, after which they were subcultured. Passage numbers were kept within 7-14 passages for both cell types.

[3] = female, Balb/c, mouse, in vivo, ip, 24 h
[4] = Balb/c mice, 20 mg/kg IP, 20 mg/kg

Chain of Icmt (O60725 whole entry, species assumed): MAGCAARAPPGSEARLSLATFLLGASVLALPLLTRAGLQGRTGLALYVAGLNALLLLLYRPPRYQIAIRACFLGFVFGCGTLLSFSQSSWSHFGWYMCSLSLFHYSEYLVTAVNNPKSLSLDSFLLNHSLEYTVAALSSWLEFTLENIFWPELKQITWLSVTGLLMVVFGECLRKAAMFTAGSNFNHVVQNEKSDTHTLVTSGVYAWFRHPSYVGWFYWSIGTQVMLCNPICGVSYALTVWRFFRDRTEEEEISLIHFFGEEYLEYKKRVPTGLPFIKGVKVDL

SMILES: CCCCCCCCn1cc(CC(N)=O)c2cc(-c3cccc(C)c3)ccc21 [Cysmethynil, 2-[5-(3-methylphenyl)-1-octyl-1H-indolo-3-yl]acetamide, reference compound]
- maximal tolerated dose (Balb/c mice; [3]): exceeded 100 kg/kg
- tolerability (Balb/c mice; mouse, in vivo, ip): well tolerated at all doses
- Clearance ([1]; Balb/c mice, 20 mg/kg IP): 0.395 mL/min/kg
- T1/2 [1, 4]: 1.55 h
- Volume of Distribution [1, 4]: 0.0529 L/kg
- Volume of Distribution ([1]; Balb/c mice, 20 mg/kg IP, listed as cysmethynil, 20 mg/kg): 0.053 L/kg
- Clearance ([1]; Balb/c mice, 100 mg/kg IP): 0.217 mL/min/kg
- Volume of Distribution ([1]; Balb/c mice, 100 mg/kg IP): 0.0799 L/kg
- detection in plasma at late time points ([1]; Balb/c mice): could not be detected in plasma beyond this time
- half-life ([1]; ip, 20 mg/kg, Balb/c mice, 20 mg/kg IP, read-out: T1/2 (converted)): 1.6 h
- half-life ([1]; ip, 100 mg/kg, Balb/c mice, 100 mg/kg IP, read-out: T1/2 (converted)): 4.3 h
- AUC ([1]; Balb/c mice, 20 mg/kg IP): 843 µg·h/mL
- Tmax ([1]; Balb/c mice, 20 mg/kg IP): 0.75 h
- AUC ([1]; Balb/c mice, 100 mg/kg IP): 7690 µg·h/mL
- Tmax ([1]; Balb/c mice, 100 mg/kg IP): 0.75 h
- Cmax ([1]; Balb/c mice, 20 mg/kg IP): 210 µg/mL
- Cmax ([1]; Balb/c mice, 100 mg/kg IP): 1160 µg/mL
- body weight change (HepG2 xenografts; xenograft-bearing mice, 25 days): Weight loss was observed up to Day 11
- Ki (Icmt; read-out: Ki of initial reversible complex with the enzyme): 2390 nM
- Ki (Icmt; time dependent inhibition, read-out: overall dissociation constant of EI* complex): 110 nM

SMILES: CCCCCCCCn1cc(CN(CC)CC)c2cc(-c3cnc(N)nc3)ccc21 [Compound 8-12, 5-(3-Diethylaminomethyl-1-octyl-1H-indol-5-yl)-pyrimidin-2-ylamine]
- LC3 aggregation (immunofluorescence) (PC3 cells): punctate LC3-positive (red) vacuoles were observed at 2.5 and 5 μM
- tolerability (Balb/c mice; [3]): well tolerated at 10, 20 and 50 mg/kg
- apparent maximal tolerated dose (Balb/c mice; mice, IP): 100 mg/kg
- time to peak concentration in plasma ([1]; 10 mg/kg or 25 mg/kg IP): within an hour
- Clearance ([1]; Balb/c mice, 10 mg/kg IP): 6.67 mL/min/kg
- Clearance ([1]; Balb/c mice, 25 mg/kg IP): 10.1 mL/min/kg
- Volume of Distribution ([1]; Balb/c mice, 25 mg/kg IP): 1.185 L/kg
- detection in plasma at late time points ([1]; Balb/c mice): not detected after 24 h and 48 h
- half-life ([1]; intraperitoneal, summary, treated mice, read-out: half life): < 1 h
- half-life ([1]; ip, 10 mg/kg or 25 mg/kg IP, estimated, read-out: half life): < 3 h
- half-life ([1]; ip, 10 mg/kg, Balb/c mice, 10 mg/kg IP, read-out: T1/2 (converted)): 1.25 h
- half-life ([1]; ip, 25 mg/kg, Balb/c mice, 25 mg/kg IP, read-out: T1/2 (converted)): 1.36 h
- AUC ([1]; Balb/c mice, 10 mg/kg IP): 24.6 µg·h/mL
- Tmax ([1]; Balb/c mice, 10 mg/kg IP): 0.25 h
- AUC ([1]; Balb/c mice, 25 mg/kg IP): 40.8 µg·h/mL
- Tmax ([1]; Balb/c mice, 25 mg/kg IP): 0.75 h
- Cmax ([1]; Balb/c mice, 10 mg/kg IP): 17.9 µg/mL
- Cmax ([1]; Balb/c mice, 25 mg/kg IP): 17.4 µg/mL
- deaths during the treatment period (HepG2 xenografts; 15 mg/kg IP daily, 25 days): one animal died
- deaths during the treatment period (HepG2 xenografts; 30 mg/kg IP daily, 25 days): Three deaths
- reduction in relative tumor volume (HepG2 xenografts; 15 and 30 mg/kg IP daily, p<0.05 vs control): Significant reduction in tumor volume was evident from Day 5 onwards for animals receiving 30 mg/kg and Day 7 onwards for animals receiving 15 mg/kg; also recorded: Reduction in tumor volume was significant from Day 5 and Day 7 onwards for animals dosed with 30 mg/kg and 15 mg/kg respectively
- weight of excised tumors vs control (HepG2 xenografts; after 25 days): significant weight loss compared to control
- IC50 [2]: 1600 to 2600 nM
